In brackets after ≈: the same amount, converted by molar mass.
Columns and labels:
PANC-1 = assay: Cytotoxicity against human PANC-1 cells assessed as reduction in cell viability; type: functional, cell-based
L1210 = assay: Cytotoxicity against mouse L1210 cells assessed as reduction in cell growth; type: functional; details: read-out: ED50 (the source's name)
MCF7 [1] = assay: Cytotoxicity against human MCF7 cells assessed as reduction in cell viability; type: functional, cell-based
U-937 = assay: Cytotoxicity against human U-937 cells assessed as reduction in cell viability; type: functional, cell-based
PC-3 = assay: Cytotoxicity against human PC-3 cells assessed as reduction in cell viability; type: functional, cell-based
[2] = Cytotoxicity against mouse FM3A tsFT210 cells assessed as inhibition of cell growth; type: functional, cell-based
UMUC3 = assay: Cytotoxicity against human UMUC3 cells assessed as reduction in cell viability by MTT assay; type: functional, cell-based
HGC-27 = assay: Cytotoxicity against human HGC-27 cells assessed as reduction in cell viability by MTT assay; type: functional, cell-based
A549 [3] = assay: Cytotoxicity against human A549 cells assessed as reduction in cell viability by MTT assay; type: functional, cell-based
P388 [4] = assay: Antitumor activity against mouse P388 cells assessed as cell growth inhibition; type: functional, cell-based
Bel-7402 = assay: Anticancer activity against human Bel-7402 cells assessed as reduction in cell growth measured for 24 hrs by MTT assay; type: functional, cell-based; details: Bel-7402, 24 h
A549 [5] = assay: Anticancer activity against human A549 cells assessed as reduction in cell growth; type: functional, cell-based
HL-60 [6] = assay: Anticancer activity against human HL-60 cells assessed as inhibition of cell growth measured after 24 hrs by CCK-8 assay; type: functional, cell-based; details: HL-60, 24 h
HeLa [7] = assay: Antitumor activity against human HeLa cells assessed as inhibition of cell growth by MTT assay; type: functional, cell-based
[8] = Antitumor activity against human A375.S2 cells assessed as cell growth inhibition; type: functional, cell-based
P388 [9] = assay: Cytotoxicity against mouse P388 cells assessed as cell growth inhibition; type: functional; details: read-out: ED50 (the source's name)
HCT-116 = assay: Antiproliferative activity against human HCT-116 cells assessed as reduction in cell viability incubated for 24 hrs by MTT assay; type: functional, cell-based; details: HCT-116, 24 h
QG-56 = assay: Cytotoxicity against human QG-56 cells assessed as reduction in cell growth incubated for 24 hrs by MTT assay; type: functional, cell-based; details: QG-56, 24 h
KB = assay: Cytotoxicity against human KB cells assessed as inhibition of cell growth; type: functional, cell-based
DU-145 = assay: Cytotoxicity against human DU-145 cells assessed as cell growth inhibition measured after 48 hrs by MTT assay; type: functional, cell-based; details: DU-145, 48 h
BC = assay: Cytotoxicity against human BC cells assessed as inhibition of cell growth; type: functional, cell-based
HepG2 = assay: Cytotoxicity against human HepG2 cells assessed as reduction in cell viability incubated for 72 hrs by SRB assay; type: functional, cell-based; details: HepG2, 72 h
SF-268 = assay: Cytotoxicity against human SF-268 cells assessed as reduction in cell viability incubated for 72 hrs by SRB assay; type: functional, cell-based; details: SF-268, 72 h
BGC-823 = assay: Cytotoxicity against human BGC-823 cells assessed as reduction in cell growth measured after 72 hrs by MTT assay; type: functional, cell-based; details: BGC-823, 72 h
MCF7 [10] = assay: Cytotoxicity against human MCF7 cells assessed as reduction in cell growth measured after 72 hrs by MTT assay; type: functional, cell-based; details: MCF7, 72 h
HL-60 [11] = assay: Antiproliferative activity against human HL-60 cells assessed as reduction in cell growth incubated for 72 hrs by MTT assay; type: functional, cell-based; details: HL-60, 72 h
K562 = assay: Antiproliferative activity against human K562 cells assessed as reduction in cell growth incubated for 72 hrs by MTT assay; type: functional, cell-based; details: K562, 72 h
HeLa [12] = assay: Cytotoxicity against human HeLa cells assessed as reduction in cell viability measured for 24 hrs by MTT assay; type: functional, cell-based
MKN-1 = assay: Cytotoxicity against human MKN-1 cells assessed as reduction in cell viability; type: functional, cell-based

COc1ccc([C@H]2SS[C@@]34C[C@]5(O)[C@H](Cl)C=C[C@@H](O)[C@@H]5ON3C(=O)[C@@H]2NC4=O)c(O)c1OC
IC50 (PANC-1): 0.02 µM

CN1C[C@H](c2c[nH]c3cc(Br)ccc23)NC[C@H]1c1c[nH]c2cc(Br)ccc12
EC50 (L1210): 10 µg/mL (≈ 20.5 µM)

COc1ccc2c3c([nH]c2c1)[C@H](C=C(C)C)N1C(=O)[C@]2(O)CCCN2C(=O)[C@@]1(O)[C@H]3OC
IC50 (MCF7 [1]): 7.6 µM

CS[C@]1(CO)C(=O)N2C3C(=CC=CC3O)C[C@@]2(SC)C(=O)N1C (stereo not given in full)
IC50 (U-937): 0.52 µM | IC50 (PC-3): 15.9 µM | IC50 [2]: 89.8 µg/mL (≈ 252 µM)

CC(C)C[C@H]1NC(=O)[C@H](CCC(N)=O)n2c1nc1ccccc1c2=O
IC50 (UMUC3): 7.2 µM | IC50 (HGC-27): 6.2 µM | IC50 (A549 [3]): 6 µM

CC(C)=CCC/C(C)=C/COc1ccc(C[C@@H]2NC(=O)[C@H](C)NC2=O)cc1
IC50 (P388 [4]): 2.86 µM | IC50 (Bel-7402): 3.2 µM | IC50 (A549 [5]): 1.37 µM | IC50 (HL-60 [6]): 1.73 µM | IC50 (HeLa [7]): 3.4 µM | IC50 [8]: 4.6 µM

CS[C@H]1C(=O)N2[C@H]3Nc4ccccc4[C@@]3(c3c[nH]c4ccccc34)C[C@]2(SC)C(=O)N1C
EC50 (P388 [9]): 20 µg/mL (≈ 43 µM)

COc1cc2c(cc1O)CCNC21CS[C@@H]2c3c(OC(C)=O)c(C)c4c(c3[C@H](COC1=O)N1[C@@H]2[C@H]2c3c(cc(C)c(OC)c3O)C[C@@H]([C@@H]1C#N)N2C)OCO4 (stereo not given in full)
IC50 (HCT-116): 0.0004 µM | IC50 (QG-56): 0.0018 µM | IC50 (KB): 0.034 nM | IC50 (DU-145): 0.00066 µM | IC50 (BC): 0.0025 µM

C=CC(C)(C)c1[nH]c2ccccc2c1/C=C1\NC(=O)[C@@]2(CC[C@@]3(O)c4cc(OC)cc(O)c4C(=O)c4c(O)cc(C)c2c43)NC1=O
IC50 (HepG2): 15 µM | IC50 (SF-268): 12.5 µM

C=CC(C)(C)[C@@]12C[C@H]3C(=O)N[C@@H](Cc4ccc(O)cc4)C(=O)N3[C@@H]1N([C@H]1O[C@]3(C[C@@H]1NC(=O)/C=C/C(C)CC(C)CCCCCC)[C@@H]1O[C@@H]1[C@](O)(CC(C)=O)[C@@H]1O[C@@H]13)c1ccccc12 (stereo not given in full)
IC50 (BGC-823): 16.6 µM | IC50 (MCF7 [10]): 8 µM | IC50 (HL-60 [11]): 12.1 µM | IC50 (K562): 19.9 µM | IC50 (HeLa [12]): 17.7 µM

CO[C@H]1c2c([nH]c3ccccc23)[C@H](C=C(C)C)N2C(=O)[C@@H]3CCCN3C(=O)[C@@]12O
IC50 (MCF7 [1]): 10.8 µM | IC50 (MKN-1): 20.7 µM

Source: ChEMBL document CHEMBL5500324, “The potential of marine-derived piperazine alkaloids: Sources, structures and bioactivities” (Eur J Med Chem, 2024)
